From ChEMBL document CHEMBL1201862, “PubChem BioAssay data set” (2004)
The source made the active and inactive calls.

Tests used:
[1] = target: T1, Alkaline phosphatase, tissue-nonspecific isozyme (Homo sapiens, UniProt P05186); assay: human TNAP enzyme inhibitors, SAR follow-up, biochemical, luminescent, dose response (AID 1056)
T1 sequence (P05186 whole entry): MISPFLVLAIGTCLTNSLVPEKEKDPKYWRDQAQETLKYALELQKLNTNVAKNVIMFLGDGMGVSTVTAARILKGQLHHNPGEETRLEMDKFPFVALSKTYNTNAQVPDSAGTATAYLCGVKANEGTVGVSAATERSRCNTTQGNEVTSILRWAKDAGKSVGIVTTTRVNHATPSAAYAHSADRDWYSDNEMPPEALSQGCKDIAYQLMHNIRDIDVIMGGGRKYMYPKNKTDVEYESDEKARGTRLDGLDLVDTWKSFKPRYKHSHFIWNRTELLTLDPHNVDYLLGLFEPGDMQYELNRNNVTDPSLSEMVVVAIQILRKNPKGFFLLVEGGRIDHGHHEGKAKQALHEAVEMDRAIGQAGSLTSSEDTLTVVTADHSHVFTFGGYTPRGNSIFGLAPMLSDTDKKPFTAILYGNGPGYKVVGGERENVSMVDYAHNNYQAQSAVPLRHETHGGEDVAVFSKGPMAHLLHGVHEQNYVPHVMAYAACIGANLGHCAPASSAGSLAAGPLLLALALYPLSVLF

[2] = target: Glyceraldehyde-3-phosphate dehydrogenase (Homo sapiens, UniProt P04406)
[3] = target: T2, Small ubiquitin-related modifier 1 (Homo sapiens, UniProt P63165); assay: inhibitors of SUMO1 partner interactions, dose response, biochemical, FRET (AID 624383); format: functional; settings: read-out: IC50_Mean
[4] = target: T2, Small ubiquitin-related modifier 1; assay: inhibitors of SUMO1 peptide binding, dose response, biochemical, fluorescence polarization, uHTS hits (AID 624382); format: functional; settings: read-out: IC50_Mean
[5] = target: Cyclin-dependent kinase 5/CDK5 activator 1 (Homo sapiens, UniProt Q00535); assay: CDK5/p35 kinase inhibitors, dose response, biochemical, cherry-picked samples, set 2 (AID 504545)
Mucolipin-3 = Mucolipin-3 (Homo sapiens, UniProt Q8TDD5); assay: Fluorescence counterscreen assay for […] agonists: dose response cell-based high-throughput screening assay to identify agonists of the transient receptor potential channel ML3 (TRPML3). [Related pubchem assays: 1424, 1448 ]; format: functional
Ion channel NompC = Ion channel NompC (Danio rerio, UniProt Q7T1G6); assay: Dose response cell-based high-throughput screening assay for agonists of the transient receptor potential channel N1 (TRPN1). [Related pubchem assays (depositor defined):AID1424, AID1448]; format: functional
Estrogen receptor beta = Estrogen receptor beta (Homo sapiens, UniProt Q92731); assay: ERβ–SRC-3 coactivator interaction inhibitors, confirmation, orthogonal assay, biochemical, ELISA, streptavidin-HRP readout (AID 1060)
Bcl-2-like protein 10 = target: T3, Bcl-2-like protein 10 (Homo sapiens, UniProt Q9HD36); assay: displacers of TR3 peptide from Bcl-B, primary screen, selectivity assay for Bfl-1 inhibitor project, biochemical, fluorescence polarization, FITC-TR3 peptide (AID 748);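 also: fluorescence polarization from a fluorescein-labelled TR3 peptide binding purified Bcl-B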
T3 sequence (Q9HD36 whole entry): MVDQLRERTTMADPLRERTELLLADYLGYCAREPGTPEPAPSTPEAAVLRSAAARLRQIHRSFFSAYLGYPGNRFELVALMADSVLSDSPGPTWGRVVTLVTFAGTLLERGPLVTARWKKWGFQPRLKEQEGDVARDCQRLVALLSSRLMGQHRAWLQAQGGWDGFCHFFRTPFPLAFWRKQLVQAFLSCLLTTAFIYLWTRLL

[6] = target: T4, Polyadenylate-binding protein 1 (Homo sapiens, UniProt P11940); assay: PABP1 MLLE–PAM2 interaction inhibitors, dose response, miRNA deadenylation inhibitor project, biochemical, fluorescence polarization, Cy5-PAM2 peptide, secondary (AID 602260); format: functional; settings: read-out: IC50_Mean
[7] = target: T4, Polyadenylate-binding protein 1; assay: PABP1 MLLE–PAM2 binding inhibitor potency, dose response, biochemical, fluorescence polarization, FITC-PAM2 peptide (AID 602259); format: functional; settings: read-out: IC50_Mean
cells = format: functional
[8] = Vero E6 cell cytotoxicity, dose response, cytotoxicity control for non-replicating M. tuberculosis project, secondary assay (AID 492998); format: functional, VeroE6; settings: Vero C1008
[9] = THP-1 cell cytotoxicity, dose response, cytotoxicity control for non-replicating M. tuberculosis project (AID 489025); format: functional
Protein skinhead-1 = target: T5, Protein skinhead-1 (Caenorhabditis elegans, UniProt P34707); format: functional
T5 sequence (P34707 whole entry): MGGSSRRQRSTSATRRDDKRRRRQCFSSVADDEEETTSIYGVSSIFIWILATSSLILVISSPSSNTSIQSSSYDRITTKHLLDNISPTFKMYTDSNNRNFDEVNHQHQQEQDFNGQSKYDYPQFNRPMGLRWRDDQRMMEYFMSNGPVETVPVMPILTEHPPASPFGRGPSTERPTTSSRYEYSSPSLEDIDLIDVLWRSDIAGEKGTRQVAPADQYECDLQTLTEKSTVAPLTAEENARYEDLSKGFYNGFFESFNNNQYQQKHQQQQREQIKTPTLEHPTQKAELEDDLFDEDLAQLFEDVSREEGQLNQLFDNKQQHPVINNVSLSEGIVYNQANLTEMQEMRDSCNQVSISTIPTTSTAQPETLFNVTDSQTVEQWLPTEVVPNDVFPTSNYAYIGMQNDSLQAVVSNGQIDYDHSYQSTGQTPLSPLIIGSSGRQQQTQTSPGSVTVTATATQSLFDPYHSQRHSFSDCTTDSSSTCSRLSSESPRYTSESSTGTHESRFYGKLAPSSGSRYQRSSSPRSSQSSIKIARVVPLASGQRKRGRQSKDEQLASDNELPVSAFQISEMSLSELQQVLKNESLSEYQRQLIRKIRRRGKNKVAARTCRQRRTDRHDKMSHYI

HEK293 [10] = assay: NOD2 signaling inhibitors in MDP-stimulated cells, cell-based, uHTS, luminescence (AID 2001); format: functional; settings: Homo sapiens
HEK293 [11] = assay: NOD1 signaling inhibitors, primary screen, cell-based, luminescence, uHTS (AID 1578); format: functional; settings: Homo sapiens
HEK293 [12] = assay: cells; format: functional, cell-based; settings: Homo sapiens
[13] = target: T6, Sentrin-specific protease 6 (Homo sapiens, UniProt Q9GZR1); format: functional;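 also: Luminescence-based dose-response confirmatory assay of SENP6 inhibition, following up an ultra-high-throughput screen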
T6 sequence (Q9GZR1 whole entry): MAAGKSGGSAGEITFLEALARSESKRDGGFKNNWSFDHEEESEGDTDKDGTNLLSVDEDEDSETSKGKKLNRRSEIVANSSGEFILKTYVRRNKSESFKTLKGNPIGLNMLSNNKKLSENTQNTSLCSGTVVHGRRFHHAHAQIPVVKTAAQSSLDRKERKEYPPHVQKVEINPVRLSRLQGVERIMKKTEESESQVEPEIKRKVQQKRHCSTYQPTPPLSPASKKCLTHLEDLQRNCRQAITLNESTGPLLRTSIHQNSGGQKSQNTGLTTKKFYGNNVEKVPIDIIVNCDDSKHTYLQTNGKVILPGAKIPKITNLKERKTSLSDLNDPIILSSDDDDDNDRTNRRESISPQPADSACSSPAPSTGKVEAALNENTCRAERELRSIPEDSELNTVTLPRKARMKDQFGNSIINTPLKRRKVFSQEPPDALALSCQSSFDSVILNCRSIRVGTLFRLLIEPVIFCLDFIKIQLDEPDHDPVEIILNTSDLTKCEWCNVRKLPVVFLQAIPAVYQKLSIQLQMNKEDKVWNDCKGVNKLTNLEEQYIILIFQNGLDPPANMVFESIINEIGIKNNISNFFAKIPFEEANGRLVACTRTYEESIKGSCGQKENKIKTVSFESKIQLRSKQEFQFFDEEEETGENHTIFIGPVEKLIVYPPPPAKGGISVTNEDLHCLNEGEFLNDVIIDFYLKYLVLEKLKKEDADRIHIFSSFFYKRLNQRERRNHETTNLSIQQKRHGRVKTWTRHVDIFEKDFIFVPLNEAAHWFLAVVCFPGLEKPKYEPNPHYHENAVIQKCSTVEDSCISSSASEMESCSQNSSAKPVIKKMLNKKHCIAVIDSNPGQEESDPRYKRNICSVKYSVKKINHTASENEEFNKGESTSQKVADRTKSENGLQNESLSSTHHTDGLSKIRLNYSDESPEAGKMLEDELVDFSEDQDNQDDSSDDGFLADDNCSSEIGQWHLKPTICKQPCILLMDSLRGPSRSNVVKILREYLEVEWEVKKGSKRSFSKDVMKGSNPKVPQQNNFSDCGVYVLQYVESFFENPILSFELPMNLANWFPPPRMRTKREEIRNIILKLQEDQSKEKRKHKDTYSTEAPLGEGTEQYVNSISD

[14] = target: T7, Sentrin-specific protease 8 (Homo sapiens, UniProt Q96LD8); format: functional;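 also: luminescence read-out of SENP8 inhibition, dose-response confirmation following an ultra-high-throughput screen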
T7 sequence (Q96LD8 whole entry): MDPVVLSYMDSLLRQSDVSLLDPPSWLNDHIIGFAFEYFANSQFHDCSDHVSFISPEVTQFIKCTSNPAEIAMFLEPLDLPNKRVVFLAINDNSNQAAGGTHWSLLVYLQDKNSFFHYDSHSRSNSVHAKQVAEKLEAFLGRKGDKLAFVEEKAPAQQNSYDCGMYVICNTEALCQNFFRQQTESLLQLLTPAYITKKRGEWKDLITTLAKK

[15] = target: T8, Voltage-gated N-type calcium channel alpha-1B subunit/Amyloid beta A4 precursor protein-binding family A member 1 (Homo sapiens, UniProt Q00975+Q02410); format: protein assay
[16] = target: T9, Sentrin-specific protease 7 (Homo sapiens, UniProt Q9BQF6); format: functional;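 also: Luminescence-based dose-response confirmation of ultra-high-throughput screening hits, measuring inhibition of SENP7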
T9 sequence (Q9BQF6 whole entry): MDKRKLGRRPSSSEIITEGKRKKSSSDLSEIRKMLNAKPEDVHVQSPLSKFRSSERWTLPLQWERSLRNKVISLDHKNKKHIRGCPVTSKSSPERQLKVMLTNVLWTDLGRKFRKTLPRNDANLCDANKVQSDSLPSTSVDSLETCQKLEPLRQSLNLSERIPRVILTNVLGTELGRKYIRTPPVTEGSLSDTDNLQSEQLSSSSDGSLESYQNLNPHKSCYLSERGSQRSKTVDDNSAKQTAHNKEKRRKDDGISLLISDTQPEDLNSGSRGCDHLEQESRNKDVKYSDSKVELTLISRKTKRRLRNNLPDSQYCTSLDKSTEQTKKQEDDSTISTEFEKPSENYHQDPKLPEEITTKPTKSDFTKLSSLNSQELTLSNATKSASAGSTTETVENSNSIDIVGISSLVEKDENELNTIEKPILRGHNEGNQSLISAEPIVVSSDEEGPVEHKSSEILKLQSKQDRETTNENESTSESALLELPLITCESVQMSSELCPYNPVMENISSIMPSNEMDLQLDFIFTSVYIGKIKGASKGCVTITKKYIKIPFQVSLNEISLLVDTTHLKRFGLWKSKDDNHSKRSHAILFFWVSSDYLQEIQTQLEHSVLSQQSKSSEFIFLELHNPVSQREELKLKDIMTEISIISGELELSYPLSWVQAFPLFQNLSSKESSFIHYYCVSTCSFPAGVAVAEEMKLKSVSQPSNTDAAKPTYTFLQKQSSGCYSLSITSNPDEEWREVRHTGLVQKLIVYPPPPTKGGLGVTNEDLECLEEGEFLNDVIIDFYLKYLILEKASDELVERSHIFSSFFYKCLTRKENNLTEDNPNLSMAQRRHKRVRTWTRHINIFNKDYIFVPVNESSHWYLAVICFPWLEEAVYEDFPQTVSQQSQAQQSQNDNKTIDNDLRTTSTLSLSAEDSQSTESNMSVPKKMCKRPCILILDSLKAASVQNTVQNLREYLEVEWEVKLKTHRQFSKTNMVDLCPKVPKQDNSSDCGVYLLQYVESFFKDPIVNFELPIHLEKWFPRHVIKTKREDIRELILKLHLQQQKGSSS

Caspase-3 = target: T10, Caspase-3 (Homo sapiens, UniProt P42574); format: functional;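 also: Dose-response selectivity test against caspase-3 for candidate inhibitors of sentrin-specific proteases (SENPs)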
T10 sequence (P42574 whole entry): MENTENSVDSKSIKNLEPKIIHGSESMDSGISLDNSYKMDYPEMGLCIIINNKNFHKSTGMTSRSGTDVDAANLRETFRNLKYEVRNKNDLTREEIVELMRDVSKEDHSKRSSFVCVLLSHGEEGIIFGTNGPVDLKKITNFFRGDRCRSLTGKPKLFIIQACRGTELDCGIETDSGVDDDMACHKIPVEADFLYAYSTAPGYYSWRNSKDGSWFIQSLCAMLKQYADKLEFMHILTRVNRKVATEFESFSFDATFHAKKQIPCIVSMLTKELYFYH

[17] = target: T8, Voltage-gated N-type calcium channel alpha-1B subunit/Amyloid beta A4 precursor protein-binding family A member 1; format: protein assay; remark: listed apart in the source

T8 sequence (Q00975 whole entry): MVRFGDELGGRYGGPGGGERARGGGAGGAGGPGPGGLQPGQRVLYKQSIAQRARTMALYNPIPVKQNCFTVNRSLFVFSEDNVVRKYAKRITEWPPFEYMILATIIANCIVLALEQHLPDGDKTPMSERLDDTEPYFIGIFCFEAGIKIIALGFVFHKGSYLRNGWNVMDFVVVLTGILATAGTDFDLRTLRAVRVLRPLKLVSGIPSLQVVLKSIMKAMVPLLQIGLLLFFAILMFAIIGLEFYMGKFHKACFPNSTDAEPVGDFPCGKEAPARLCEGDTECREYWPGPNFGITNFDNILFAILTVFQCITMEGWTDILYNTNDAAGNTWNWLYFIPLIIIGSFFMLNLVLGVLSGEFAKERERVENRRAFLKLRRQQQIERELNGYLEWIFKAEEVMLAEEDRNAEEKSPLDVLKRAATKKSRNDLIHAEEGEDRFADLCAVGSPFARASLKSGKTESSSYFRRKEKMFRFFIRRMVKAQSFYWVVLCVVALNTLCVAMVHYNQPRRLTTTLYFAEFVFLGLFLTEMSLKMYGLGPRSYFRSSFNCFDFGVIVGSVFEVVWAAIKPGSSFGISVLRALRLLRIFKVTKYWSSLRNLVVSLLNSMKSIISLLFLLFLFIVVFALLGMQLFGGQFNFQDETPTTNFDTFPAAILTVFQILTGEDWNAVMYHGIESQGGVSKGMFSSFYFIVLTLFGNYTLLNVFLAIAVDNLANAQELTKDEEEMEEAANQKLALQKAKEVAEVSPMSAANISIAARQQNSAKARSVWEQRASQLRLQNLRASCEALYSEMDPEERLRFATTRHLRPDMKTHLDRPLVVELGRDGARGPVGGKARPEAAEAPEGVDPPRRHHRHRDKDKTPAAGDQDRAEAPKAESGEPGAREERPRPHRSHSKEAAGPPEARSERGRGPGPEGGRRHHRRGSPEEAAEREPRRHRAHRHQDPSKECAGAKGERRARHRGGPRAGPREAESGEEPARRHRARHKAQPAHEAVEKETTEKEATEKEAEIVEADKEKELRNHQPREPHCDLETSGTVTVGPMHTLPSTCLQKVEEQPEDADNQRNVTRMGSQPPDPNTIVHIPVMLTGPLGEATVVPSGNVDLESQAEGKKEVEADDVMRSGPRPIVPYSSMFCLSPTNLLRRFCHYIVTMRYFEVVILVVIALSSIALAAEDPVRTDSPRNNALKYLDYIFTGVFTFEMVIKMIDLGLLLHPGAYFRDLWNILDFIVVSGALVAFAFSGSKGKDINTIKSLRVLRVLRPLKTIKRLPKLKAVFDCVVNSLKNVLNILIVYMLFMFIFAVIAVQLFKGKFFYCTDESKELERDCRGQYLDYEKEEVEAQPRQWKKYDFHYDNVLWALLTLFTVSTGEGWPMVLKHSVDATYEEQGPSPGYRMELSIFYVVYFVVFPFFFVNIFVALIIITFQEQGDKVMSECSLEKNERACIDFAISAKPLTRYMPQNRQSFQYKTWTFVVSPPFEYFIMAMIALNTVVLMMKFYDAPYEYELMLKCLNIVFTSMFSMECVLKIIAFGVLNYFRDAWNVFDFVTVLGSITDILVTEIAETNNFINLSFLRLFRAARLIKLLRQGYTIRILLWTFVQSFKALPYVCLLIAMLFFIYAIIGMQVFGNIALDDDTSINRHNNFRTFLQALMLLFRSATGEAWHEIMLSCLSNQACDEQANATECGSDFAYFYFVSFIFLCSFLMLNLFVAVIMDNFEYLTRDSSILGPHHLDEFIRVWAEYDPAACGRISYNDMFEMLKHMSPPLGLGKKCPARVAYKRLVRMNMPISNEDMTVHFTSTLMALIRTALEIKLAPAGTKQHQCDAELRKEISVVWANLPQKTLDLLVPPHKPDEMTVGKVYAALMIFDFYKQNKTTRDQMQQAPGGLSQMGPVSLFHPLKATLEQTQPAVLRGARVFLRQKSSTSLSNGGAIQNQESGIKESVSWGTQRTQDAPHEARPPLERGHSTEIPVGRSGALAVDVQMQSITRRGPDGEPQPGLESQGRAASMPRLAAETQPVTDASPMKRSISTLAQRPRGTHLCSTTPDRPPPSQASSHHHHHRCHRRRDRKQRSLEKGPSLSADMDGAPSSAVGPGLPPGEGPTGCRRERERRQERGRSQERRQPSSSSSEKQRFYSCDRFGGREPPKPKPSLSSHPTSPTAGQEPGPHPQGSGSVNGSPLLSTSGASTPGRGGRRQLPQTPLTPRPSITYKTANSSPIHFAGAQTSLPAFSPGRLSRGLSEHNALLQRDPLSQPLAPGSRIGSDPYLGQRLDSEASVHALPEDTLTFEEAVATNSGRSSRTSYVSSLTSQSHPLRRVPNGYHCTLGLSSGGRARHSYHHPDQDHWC
T8 sequence (Q02410 whole entry): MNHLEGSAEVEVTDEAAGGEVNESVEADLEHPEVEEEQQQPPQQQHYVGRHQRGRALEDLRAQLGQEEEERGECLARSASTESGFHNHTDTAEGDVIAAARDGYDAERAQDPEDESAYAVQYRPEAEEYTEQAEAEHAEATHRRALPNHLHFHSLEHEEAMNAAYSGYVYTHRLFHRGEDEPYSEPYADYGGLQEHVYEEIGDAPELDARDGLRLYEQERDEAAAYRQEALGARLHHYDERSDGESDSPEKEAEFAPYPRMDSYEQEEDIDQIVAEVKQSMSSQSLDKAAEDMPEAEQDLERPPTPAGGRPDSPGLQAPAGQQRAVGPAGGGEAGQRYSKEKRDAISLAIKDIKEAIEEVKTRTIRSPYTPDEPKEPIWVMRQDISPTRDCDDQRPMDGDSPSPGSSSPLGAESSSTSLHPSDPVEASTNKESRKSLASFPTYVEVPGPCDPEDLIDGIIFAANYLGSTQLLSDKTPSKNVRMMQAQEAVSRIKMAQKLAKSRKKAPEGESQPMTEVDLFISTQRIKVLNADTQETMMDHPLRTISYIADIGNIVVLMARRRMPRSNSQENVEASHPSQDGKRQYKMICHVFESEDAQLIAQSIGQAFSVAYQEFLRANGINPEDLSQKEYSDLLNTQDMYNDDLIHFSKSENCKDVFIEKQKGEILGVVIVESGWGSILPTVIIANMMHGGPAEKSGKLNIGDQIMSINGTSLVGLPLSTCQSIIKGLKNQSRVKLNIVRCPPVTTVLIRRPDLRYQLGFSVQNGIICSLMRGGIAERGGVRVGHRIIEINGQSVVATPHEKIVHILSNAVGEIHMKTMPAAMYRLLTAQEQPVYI
Mucolipin-3, sequence (Q8TDD5 whole entry): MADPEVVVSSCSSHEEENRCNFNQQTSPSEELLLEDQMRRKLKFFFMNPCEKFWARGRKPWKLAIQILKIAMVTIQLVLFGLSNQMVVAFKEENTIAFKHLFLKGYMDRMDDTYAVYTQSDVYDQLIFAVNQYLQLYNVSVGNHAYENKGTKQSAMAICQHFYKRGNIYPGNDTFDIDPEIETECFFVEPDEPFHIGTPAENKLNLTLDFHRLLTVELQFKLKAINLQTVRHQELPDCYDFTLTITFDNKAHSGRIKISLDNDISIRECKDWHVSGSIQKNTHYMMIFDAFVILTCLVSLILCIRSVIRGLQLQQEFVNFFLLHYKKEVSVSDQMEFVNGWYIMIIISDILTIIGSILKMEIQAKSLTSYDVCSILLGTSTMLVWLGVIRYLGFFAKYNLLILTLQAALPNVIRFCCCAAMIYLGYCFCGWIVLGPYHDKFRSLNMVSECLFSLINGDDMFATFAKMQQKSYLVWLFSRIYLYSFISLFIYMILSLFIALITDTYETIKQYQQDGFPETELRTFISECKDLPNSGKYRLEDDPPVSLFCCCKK
T2 sequence (P63165 whole entry): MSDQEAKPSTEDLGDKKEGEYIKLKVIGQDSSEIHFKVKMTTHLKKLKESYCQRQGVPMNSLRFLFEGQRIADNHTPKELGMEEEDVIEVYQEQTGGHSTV
T4 sequence (P11940 whole entry): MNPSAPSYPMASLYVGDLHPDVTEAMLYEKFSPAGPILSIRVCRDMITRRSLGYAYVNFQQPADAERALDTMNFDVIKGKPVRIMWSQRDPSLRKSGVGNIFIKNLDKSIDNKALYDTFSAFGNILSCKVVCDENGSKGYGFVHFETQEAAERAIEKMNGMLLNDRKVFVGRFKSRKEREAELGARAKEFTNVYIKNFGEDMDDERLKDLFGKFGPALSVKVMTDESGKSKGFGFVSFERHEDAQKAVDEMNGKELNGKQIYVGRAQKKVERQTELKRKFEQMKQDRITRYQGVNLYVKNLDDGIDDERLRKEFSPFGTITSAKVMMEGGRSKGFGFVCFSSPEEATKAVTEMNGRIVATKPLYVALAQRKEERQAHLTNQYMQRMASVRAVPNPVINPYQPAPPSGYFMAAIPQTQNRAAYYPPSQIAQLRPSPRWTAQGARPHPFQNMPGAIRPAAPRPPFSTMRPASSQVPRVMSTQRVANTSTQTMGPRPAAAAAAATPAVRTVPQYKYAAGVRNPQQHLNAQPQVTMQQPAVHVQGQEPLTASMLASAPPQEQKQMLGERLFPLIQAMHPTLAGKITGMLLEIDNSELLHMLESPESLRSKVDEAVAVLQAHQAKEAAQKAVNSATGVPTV
Estrogen receptor beta, sequence (Q92731 whole entry): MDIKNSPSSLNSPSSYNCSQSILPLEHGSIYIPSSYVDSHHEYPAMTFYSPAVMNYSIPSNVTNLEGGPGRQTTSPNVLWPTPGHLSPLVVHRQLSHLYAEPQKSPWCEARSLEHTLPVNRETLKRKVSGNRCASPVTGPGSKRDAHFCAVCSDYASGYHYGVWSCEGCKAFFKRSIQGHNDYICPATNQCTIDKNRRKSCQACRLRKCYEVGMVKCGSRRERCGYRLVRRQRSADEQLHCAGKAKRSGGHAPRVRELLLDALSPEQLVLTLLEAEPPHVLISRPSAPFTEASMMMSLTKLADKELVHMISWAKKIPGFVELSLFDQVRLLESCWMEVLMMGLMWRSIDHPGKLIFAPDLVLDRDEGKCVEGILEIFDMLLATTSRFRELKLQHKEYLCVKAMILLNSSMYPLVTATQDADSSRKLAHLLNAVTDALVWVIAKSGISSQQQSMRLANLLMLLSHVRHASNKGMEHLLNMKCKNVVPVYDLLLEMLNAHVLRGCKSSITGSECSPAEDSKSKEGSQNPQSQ

In the case of `COc1ccc(S(=O)(=O)Nc2ccncn2)cc1OC`, the IC50 [1] is reported as > 100 µM (inactive) and the IC50 [2] is reported as > 100 µM (not active).
For `CC(C)[C@H](CO)Nc1nc(Nc2ccc(Cl)c(C(=O)O)c2)c2ncn(C(C)C)c2n1`, the IC50 [3] was 21.4 µM (inactive), the IC50 [4] was > 66.6 µM (inactive) and the AC50 [5] was 9.44 µM (active).
For `COC(=O)C(/C=N/OCc1ccc([N+](=O)[O-])cc1)NC(=O)c1cccc(Cl)c1` (stereo unspecified), the EC50 (Mucolipin-3) was > 29.9 µM (not active) and the EC50 (Ion channel NompC) was > 29.9 µM (inactive).
For `Cc1cc(C)c2cc3c(ccn3C3OC[C@H](O)[C@H](O)[C@H]3O)cc2n1` (stereo partly specified), the IC50 (Estrogen receptor beta) was < 0.023 µM (not active), the IC50 (Bcl-2-like protein 10) was > 6.25 µM (inactive) and the IC50 [6] was > 66 µM (inactive). For the same compound, the IC50 [7] was 57.6 µM (inactive).
With `C#CCSc1nnc(-c2cccc3ccccc23)o1` the IC50 (cells) was 9.32 µM (active), the CC50 [8] was 15.7 µM (active) and the CC50 [9] was 20.6 µM (active). The IC50 (Protein skinhead-1) was 10.2 µM (active).
For `Cc1ccc(NC(=O)Nc2nnc(-c3ccncc3)s2)cc1`, the IC50 (HEK293 [10]) was 5.87 µM (active), the EC50 (HEK293 [11]) was 3.38 µM (active) and the EC50 (Mucolipin-3) was > 29.9 µM (not active). The IC50 (HEK293 [12]) was > 20 µM (inactive) and the EC50 (Ion channel NompC) was > 29.9 µM (inactive).
In the case of `O=c1[nH]c(/C=C/c2ccccc2Cl)nc2ccccc12`, the IC50 [13] is reported as 1.4 µM (active), the IC50 [14] is reported as > 100 µM (inactive) and the IC50 [15] is reported as > 56.8 µM (not active). For the same compound, the IC50 [16] was 1.64 µM (active), the IC50 (Caspase-3) was 1.61 µM (active) and the IC50 [17] was > 50 µM (inactive).
